Results on six compounds are retold here after patent US6458590B1, “Methods and compositions for treatment of restenosis” (The United States of America, as represented by the …, priority 1997, dated 2002).

Data set [1] deals with OPN. The data set can be described thus: OPN expression in lipofected CASMCs (immunoprecipitation, Western blot). In kind it is cell-based, human. As to the method:
(§1) CASMCs (Clonetics) were transfected with a “LIPOFECTIN”-oligonucleotide complex according to the manufacturer's (GIBCO-BRL Life Technologies, Inc. Gaithersburg, Md.) specifications. Briefly, 5 μg of “LIPOFECTIN” was mixed with either 1 or 2 μg of antisense oligonucleotide in 200 μl of serum free medium (SFM) (also called basal medium) and incubated at room temperature for 15 min. Cells (1×10^5 cells/well, 12-well plate) during log phase of growth were washed with SFM and 1 ml of SFM containing Lipofectin with different amounts of antisense S-oligonucleotides was added to each well and mixed by gentle agitation. The cells were incubated further with the same medium at 37° C. for 12 h. Additional control cells which received either SFM, or SFM which contained “LIPOFECTIN” alone, were also included. […] The SFM medium containing “LIPOFECTIN”-oligonucleotide complex was removed, and the cells incubated for an additional 48 h in regular medium. At the end of this incubation period, the cells were ready for the determination of a dose response on OPN expression as measured by Western blotting.
The effect of antisense OPN sequences on OPN expression was determined by Western blot analysis as described above. […]

For data set [2], the system named is human coronary artery smooth muscle cells (CASMCs). The data set can be described thus: Proliferation of CASMCs after lipofection with OPN oligonucleotides ([3H]-thymidine). In kind it is cell-based. As to conditions: oligonucleotide 1.5 μg/200 μl with LIPOFECTIN 5 μg/200 μl. As to the method:
as §1
The effect of antisense ASHOPN-P1 on the proliferation of human coronary artery smooth muscle cells (CASMCs) was determined as described supra. […] The acid precipitable radioactivity was measured using a scintillation beta counter (Beckman).

In data set [3] the test system is human CASMC. The data set can be described thus: CASMC migration assay (Transwell). In kind it is cell-based. As to conditions: OPN 0.68 or 1.36 μg/ml as chemoattractant, 24 h. As to the method: Migration of CASMC was performed using Transwell cell culture chambers with an […] pore size polycarbonate membrane (Costar) as described previously (Yue et al., (1994) Exptl. Cell Res. 214:459-464). Briefly, sub-confluent human CASMC were trypsinized, centrifuged and resuspended in basal medium (SmBM) supplemented with 0.2% BSA. This was followed by the addition of 0.25 ml of cell suspension (5×10^4 cells) to the upper compartnent of the chamber. The lower compartment contained 0.5 ml of basal medium supplemented with 0.2% BSA together with 0.68 μg/ml OPN, 1.36 μg/ml OPN, or buffer alone. After incubation at 37° C. for 24 h., the non-migrated cells on the upper surface of the filters were scraped and washed. The migrated cells were fixed in methanol, stained with Giemsa stain, counted under an inverted microscope and photomicrographed (120×) using a Zeiss photomicroscope (Axiovert 405 M). In separate experiments, cells in the upper compartment were also treated with monoclonal mouse anti-human αvβ3-antibody (Chemicon) (10 μg/ml) before being assayed for migration in order to ascertain whether this OPN-stimulated migration is mediated via αvβ3. Preimmune IgG treatment served as a non-specific control.

Data set [4] relates to CASMC. The data set is described as follows: ECM-invasion assay (matrigel-coated invasion chamber). In kind it is cell-based, human. As to conditions: OPN 0.5-2.0 μg/ml, 24 h. As to the method: The ECM-invasion assay was performed using a commercially available 24-well matrigel-coated invasion chamber (Collaborative Research) as described previously (Kundu et al., (1996) Proc. Natl. Acad. Sci. (USA) 93:2915-2919). Briefly, the confluent CASMC were trypsinized, centrifuged, and resuspended in basal medium supplemented with 0.1% BSA. The lower compartment of the invasion chamber was filled with fibroblast-conditioned medium (FCM) which served as a chemoattractant. The invasion assays were initiated by inoculating the upper chamber with cells (1×10^5/well) which were either untreated or treated with varying concentrations of OPN (0.5-2.0 μg/ml). After incubating at 37° C. for 24 h, the cells in the upper chamber were discarded, the matrigel was scraped clear and the cells which had invaded the matrigel and migrated to the lower surface of the filter, were fixed, stained, counted and photomicrographed (120×) as described above. The cells were also pre-treated with mouse anti-human αvβ3 antibody (Chemicon) (10 μg/ml) as described above to determine if the OPN-induced invasion was mediated via αvβ3. Preimmune IgG was used as a non-specific control.

Data set [5] concerns CASMCs. The data set is described as follows: CASMC proliferation assay ([3H]thymidine). In kind it is cell-based, human. Here is the method: CASMCs were cultured as described above and the cells were starved in serum free media for 48 h. The proliferation assays were performed as described previously (Monfardini et al., (1995) J. Biol. Chem. 270:6628-6638). Briefly, the cells were incubated in the absence or presence of PDGF-AB (100 ng/ml) (Upstate Biotechnology, Lake Placid, N.Y.) and increasing concentrations of OPN (1.0-6.0 μg/ml) at 37° C. for 24 h. In separate experiments, cells were pre-treated with either mouse anti human αvβ3-antibody (5 μg/ml), preimmune IgG or GRGDS peptide (10 nM) followed by OPN (3.0 μg/ml). After 4 h, [3H]thymidine (1 μCi/ml) was added and the cells were maintained in culture for an additional 24 h under the same culture conditions as described previously. After removing the supernatants, the cells were washed with basal medium and lysed in 50% TCA. The acid precipitable cell-bound radioactivity was measured using a scintillation counter (Beckman).

The subject of data set [6] is OPN. The data set can be described thus: OPN production in PMA-stimulated CASMCs (immunoprecipitation, Western blotting). In kind it is cell-based, human. As to conditions: 250 nM PMA, 37° C., 24 h. Here is the method: An in vitro assay was used in order to determine whether an increase in OPN gene expression is detectable. Since phorbol myristate acetate (PMA) is known to induce OPN gene expression, CASMCs were stimulated with PMA, and OPN production was detected by immunoprecipitation of cell lysates followed by Western blotting.
CASMCs were incubated with Phorbol 12-myristate 13-acetate (PMA) (250 nM) at 37° C. for 24 h. The cells were immunoprecipitated using a kit according to manufacturer's (Boehringer Mannheim) instructions. Briefly, the cells were lysed with lysis buffer, centrifuged and the supernatant incubated with rabbit OPN-antibody for 1 h then with protein A-agarose at 4° C. overnight. Bound complexes were pelleted by centrifugation, washed and electrophoresed. Western blot analysis was done as described, supra.

“5′-AATCACTGCAATTCTCATGG-3′ (all phosphorothioate, sugars by position and methylation of C not given here; listed as Homo sapiens) [ASHOPN-P1]”: the “expression of OPN by CASMCs” value in data set [1] (1 or 2 μg S-oligonucleotide with LIPOFECTIN, versus LIPOFECTIN-treated or sense-treated cells) is recorded as “capable of inhibiting expression of OPN”. For the same compound, in data set [1] (compared with OPN sense-treated cells), the “specificity of the antisense effect” value was “specific”. Also, the “inhibition of cell proliferation as compared to cells treated with LIPOFECTIN alone” value in data set [2] is recorded as 82%.
Turning to osteopontin [OPN], the “rate of migration of CASMCs” value in data set [3] is listed as “enhanced with increasing concentrations”. Moreover, the “invasiveness of CASMCs on MATRIGEL” value in data set [4] is listed as “enhanced their invasiveness”. The CASMC proliferation entry in data set [5] (OPN 1.0-6.0 μg/ml) was “stimulated their proliferation in a dose-dependent manner”. Besides, in data set [5] (with 100 ng/ml of PDGF-AB), the “CASMC proliferation, OPN in conjunction with PDGF-AB” value was “dramatic dose-dependent effect”. The “CASMC proliferation, OPN alone” value in data set [5] (without PDGF-AB) is “modest proliferative response”.
Consider “platelet-derived growth factor-AB [PDGF-AB, reference compound]”, for which the “CASMC proliferation, PDGF-AB alone” value in data set [5] (PDGF-AB 100 ng/ml, without OPN) was “virtually no effect”.
As for `CCCCCCCCCCCCCC(=O)O[C@@H]1[C@@H](C)[C@@]2(O)[C@@H](C=C(CO)C[C@]3(O)C(=O)C(C)=C[C@@H]23)[C@@H]2C(C)(C)[C@]12OC(C)=O` [PMA, Phorbol 12-myristate 13-acetate], the “level of OPN protein in stimulated cells versus unstimulated cells” value in data set [6] is “markedly higher”.
In the case of “5′CCATGAGAATTGCAGTGATT-3′ (all phosphorothioate, sugars by position and methylation of C not given here; listed as Homo sapiens) [SHOPN, reference compound]”, in data set [2], the “inhibition of cell proliferation as compared to cells treated with LIPOFECTIN alone” value was “about 50%”.
“Gly-Arg-Gly-Asp-Ser (GRGDS) [reference compound]”: the “effect on OPN-induced proliferation” value in data set [5] (pre-treatment: αvβ3-antibody 5 μg/ml or GRGDS 10 nM, then OPN 3.0 μg/ml) is reported as “drastically inhibited”.
